The values that follow come from the pKa sets of Baltruschat and Czodrowski (2020).

`CCCCc1c(-c2ccccc2)n[nH]c1O` yielded a pKa (acidic group) of 8.2.

`CC(C)(C)c1ccncc1`: the pKa (basic group) amounted to 5.95. On the same count and under the same terms, next, `C#CC(C)(C)Nc1ccccc1`: 4.26. The same measure, in the same setting: next, `C[C@H]1CCN2CCC[C@@H]12`: 11.4. In turn, `O=C(O)CSc1ccccc1` registered a pKa (acidic group) of 3.52. On to `[NH3+][C@H]1CONC1=O`, for which, for the setting “acidic group”, the pKa was 4.54. For `COC(=O)CC(=O)c1cccnc1`, the pKa (acidic group) came to 8.98. `c1nc(Cc2c[nH]c(Cc3[nH]cc[nH+]3)n2)c[nH]1` returned a pKa (basic group) of 6.15.

For the setting “basic group”, `Cc1[nH]c(C)c(C)c1C` had a pKa of 3.77. Still for that read-out and setting: the value for `COc1ccc2c(c1)NCCN2` was 5.26. Still for that read-out and setting: the value for `CCCNCC[S-]` was 10.9. As to `Nc1c(C(=O)O)[nH+]cn1[C@H]1O[C@@H](CO)[C@H](O)[C@@H]1O`, the pKa (acidic group) is 2.9.

Under “basic group”, `CC(=O)NC(Cc1c[nH]cn1)C(=O)[O-]` (configuration not stated) displayed a pKa of 7.11. For `CCCCCCCNc1ccccc1`, the pKa (basic group) worked out at 5.09. Same read-out and setting: the value for `Cc1ccc(N)nc1` was 7.22. Regarding `O=Cc1cc(Br)ccc1O`, the pKa (acidic group) came to 7.4. Still for that read-out and setting: next, `O=CC1CCCCC1=O` (configuration not stated): 6.35; `O=P([O-])(O)c1cn2c([nH+]1)[C@@H](O)[C@H](O)[C@@H](O)[C@@H]2CO`: 4.84. Consider `CCc1cc(-c2ccccc2)nnc1NCCN1CCOCC1`, for which the pKa (basic group) is 7.08. The molecule `Cc1ccc(C(=O)O)c(Cl)c1` came in with a pKa (acidic group) of 3.27. On to `CC(C)(C)/C(N)=N/O`, for which, where the note is “basic group”, the pKa amounted to 5.8. `Cc1noc(NS(=O)(=O)c2ccc(N)cc2)c1C`: the pKa (acidic group) was found to be 4.16. For `C#CCO`, the pKa (acidic group) turned out to be 13.3. Molecule `CCCCCCCCCCCCCCCCCCN(CC(O)CC)CC(O)CC` (configuration not stated) gave a pKa (basic group) of 5.6. On the same count and under the same terms, next, `CCN1CCC=C1C`: 11.9.

On to `Nc1n[nH]c(N)c1/N=N/c1ccc(C(=O)O)cc1`, for which the pKa reads like this: (acidic group) 4.68; (basic group) 3.4. Where the note is “acidic group”, `CC(C)(S)[C@@H](C(=O)O)n1cc[nH+]c1Cc1ccccc1` registered a pKa of 2.81. Turning to `CC1CCN1` (configuration not stated), the pKa (basic group) came to 11. For the setting “acidic group”, `COc1cccc(C(=O)O)c1` displayed a pKa of 4.06. For `NS(=O)(=O)c1ccc([N+](=O)[O-])cc1`, the pKa (acidic group) turned out to be 8.63. In the case of `Nc1[nH+]c2nc[nH]c2c(N)[n+]1O`, the pKa (acidic group) amounted to 1. The same measure, in the same setting: next, `NC(=S)Nc1ccc(Br)cc1`: 12.3.

The molecule `[NH3+]CCCC#CC#CCCC(=O)O` had a pKa (acidic group) of 4.12. Molecule `C[C@@H](C(=O)c1ccc(O)cc1)[NH+](C)Cc1ccccc1` registered a pKa (acidic group) of 7.5.

`Cc1ccnc2ccccc12` came in with a pKa (basic group) of 5.51.

Under “basic group”, `c1ccc(CN2CCCC2)cc1` returned a pKa of 9.51. With `CNC(C)Cc1ccccc1` (configuration not stated), the pKa (basic group) was found to be 9.87. Regarding `Cc1ccc([Se](=O)O)cc1`, the pKa (acidic group) amounted to 4.88. For the setting “basic group”, `C1CCC2CNCCC2C1` (configuration not stated) came in with a pKa of 10.9. With `O=[N+]([O-])c1cc(O)ccc1O`, the pKa (acidic group) came to 7.42. Consider `Nc1ccc(O)c(N)c1`, for which the pKa by setting is: (acidic group) 10.4; (basic group) 5.7. Molecule `COc1cc[n+](O)cc1` had a pKa (acidic group) of 2.05.

Take `O=[N+]([O-])c1ccc(-n2nnnc2/C=C/c2ccc(Cl)cc2)cc1`: for the setting “basic group”, the pKa is -3.05. `Fc1cccc(NC=S)c1` gave a pKa (acidic group) of 10.9. In turn, `CCc1nc2ccccc2[nH]1` gave a pKa (basic group) of 6.2. Same read-out and setting: the value for `CCC(C)(C)N(C)C(C)(C)C` was 11.9. Molecule `C=C1CC1C[C@H]([NH3+])C(=O)O` (some centres not stated) came in with a pKa (acidic group) of 2.4. On the same count and under the same terms, next, `Cc1cc(O)nn1-c1ccccc1C(=O)N1CCCCC1`: 12.4. As for `Cc1cccc2cc3ccccc3nc12`, the pKa (basic group) was 4.5. Same read-out and setting: the value for `Cc1ccccc1/C(=N\CCC[NH+](C)C)c1ccccc1N` was 3.82.

In turn, `O=c1cc(-c2ccccc2)oc2c(O)cccc12` registered a pKa (acidic group) of 7.82. For `CCN(CC)CCCC(C)Nc1ccnc2cc(Br)ccc12` (configuration not stated), the pKa (basic group) came out at 10.2.

In the case of `CN`, under “basic group”, the pKa amounted to 10.8.

Take `COc1cc2ccc(=O)oc2cc1O`: the pKa (acidic group) amounted to 6.5. `COCCN(C)c1ccccc1` returned a pKa (basic group) of 4.81. Consider `Cc1cc(Br)ccc1N`, for which, where the note is “basic group”, the pKa came out at 3.58. Still for that read-out and setting: the value for `CC(C)C(C(C)C)N(C)C` was 10.1; that for `c1ccc2nc3ccc4ccccc4c3cc2c1` was 4.39. In turn, `O=C(O)c1cc(Br)cs1` had a pKa (acidic group) of 3.11. Take `CC(=O)SCCN(C)C`: where the note is “basic group”, the pKa came out at 8.27. In turn, `Cc1cc([N+](=O)[O-])cc2c1nnn2O` displayed a pKa (acidic group) of 3.43. Turning to `CN(C)c1ccc(/C=N/c2ncc3[nH+]c[nH]c3n2)cc1`, the pKa (basic group) turned out to be 3.82. On to `Nc1ccc(S(=O)(=O)Nc2ncccn2)cc1`, for which the pKa reads like this: (acidic group) 6.42; (basic group) 2. In turn, `Cc1ccc(S(=O)(=O)N[C@@H](CC(N)=O)C(=O)[O-])cc1` had a pKa (acidic group) of 11.4. The molecule `CNc1nnc(S(N)(=O)=O)s1` yielded a pKa (acidic group) of 7.8. Consider `Fc1ccccn1`, for which the pKa (basic group) is -0.44.

Regarding `CCC(=O)/C=N/O`, the pKa (acidic group) was found to be 8.37.

The molecule `CC(C)(C)Cc1ccccc1O` gave a pKa (acidic group) of 10.7. Still for that read-out and setting: the value for `C/C(O)=C/C(=O)[O-]` was 13.2; that for `Oc1ccc(/N=N/c2nccs2)c(O)c1` was 1.56. `CCN(CC)CCNc1cc(C)nc(Nc2ccc(Cl)cc2)n1`: where the note is “basic group”, the pKa stood at 9.05. `Cc1ncc(CO)c(C)c1O`: the pKa worked out at 9.98 (acidic group) and 5.4 (basic group). On to `N=C(c1ccccc1)c1ccccc1Cl`, for which, under “basic group”, the pKa was found to be 5.59. Same read-out and setting: the value for `Brc1ccc2nc3c(c(N4CCOCC4)c2c1)CCC3` was 6.38. As to `Oc1cccc(O)c1O`, the pKa (acidic group) amounted to 8.97. Take `CN(C)/N=C(\N)CC[Si](C)(C)C`: for the setting “basic group”, the pKa turned out to be 10.2.

`O=C(CCN1CCOCC1)c1ccccc1` showed a pKa (basic group) of 6.5. Molecule `S=C(Nc1ccc(Cl)cc1)c1cccc(Br)c1` gave a pKa (acidic group) of 10.1. For `Cn1c[nH+]cc1C[C@H]([NH3+])C(=O)O`, the pKa (acidic group) worked out at 1.84. Take `O=[PH]([O-])C([NH2+]Cc1cccnc1)c1ccccc1O` (configuration not stated): for the setting “basic group”, the pKa was found to be 3.25.

Under “basic group”, `NC(=O)/C=C(\O)c1cccnc1` gave a pKa of 8.01. For the molecule `CC(=O)c1cc(C(C)=O)[nH]n1`, the pKa (acidic group) was found to be 8.98. Where the note is “basic group”, `CCN(CC)CC(=O)Nc1ccc([N+](=O)[O-])cc1` showed a pKa of 8.05. Where the note is “acidic group”, `CC(=N\O)/C(C)=N/O` yielded a pKa of 10.6. Regarding `CN(C)/C=N/c1cccc(O)c1`, the pKa stood at 10.2 (acidic group) and 7.88 (basic group).

In the case of `CC1(C)C(=O)NC(=O)C1(C)C`, for the setting “acidic group”, the pKa worked out at 9.7. Turning to `Cn1nc(-c2ccccc2)cc/c1=N\CCN1CCOCC1`, the pKa (basic group) amounted to 10.2. As to `Sc1cccc2ccc[nH+]c12`, the pKa (acidic group) was found to be 2.05.

In the case of `Cc1ccc2c(c1)C([P+](c1ccccc1)(c1ccccc1)c1ccccc1)c1ccccc1-2` (configuration not stated), the pKa (acidic group) was 9.38. Molecule `Cc1[nH]cnc1CSCCNC(=N)NCCCc1c[nH]cn1` displayed a pKa (basic group) of 11.6. The molecule `NCCCC[NH2+]CCCN` gave a pKa (basic group) of 9.86.

Turning to `[NH3+]CCc1nnn[nH]1`, the pKa (acidic group) is 3.99. Turning to `C#C[C@]1(O)C[C@@H](C)N(C)[C@H]2CCCC[C@@H]21`, the pKa (basic group) worked out at 8.99. Still for that read-out and setting: the value for `CC(C)=NNC1CCN(C)CC1` was 8.9. For `Nc1ccc(S(=O)(=O)Nc2ccn(-c3ccccc3[N+](=O)[O-])n2)cc1`, where the note is “acidic group”, the pKa was determined as 7.

Turning to `Nc1ccc(/C=C/c2cc(N)c3ccccc3n2)cc1`, the pKa (basic group) amounted to 9.5. On the same count and under the same terms, the value for `Cc1cnc2c([S-])ncnc2n1` was 7.02.

The term pKa denotes the pH at which an ionisable group is half protonated.
